These results are taken from patent publication US6844345B2, “Piperazine derivatives” (priority 2001, dated 2005).

Data set [1] deals with T1, 5-HT2A receptor (Homo sapiens, UniProt P28223). Put plainly: Binding to 5-HT2A receptor, [125I]-DOI radioligand, Method (c). Further details: expressed in transfected cells; host or cells: CHO cell line. The note with it: CHO cell line, read-out: Ki (2A). Here is the method: (§1) The binding of compounds of formula (I) to serotonin receptors was determined in vitro by standard methods. The preparations were investigated in accordance with the assays given hereinafter.
T1 sequence (P28223 whole entry): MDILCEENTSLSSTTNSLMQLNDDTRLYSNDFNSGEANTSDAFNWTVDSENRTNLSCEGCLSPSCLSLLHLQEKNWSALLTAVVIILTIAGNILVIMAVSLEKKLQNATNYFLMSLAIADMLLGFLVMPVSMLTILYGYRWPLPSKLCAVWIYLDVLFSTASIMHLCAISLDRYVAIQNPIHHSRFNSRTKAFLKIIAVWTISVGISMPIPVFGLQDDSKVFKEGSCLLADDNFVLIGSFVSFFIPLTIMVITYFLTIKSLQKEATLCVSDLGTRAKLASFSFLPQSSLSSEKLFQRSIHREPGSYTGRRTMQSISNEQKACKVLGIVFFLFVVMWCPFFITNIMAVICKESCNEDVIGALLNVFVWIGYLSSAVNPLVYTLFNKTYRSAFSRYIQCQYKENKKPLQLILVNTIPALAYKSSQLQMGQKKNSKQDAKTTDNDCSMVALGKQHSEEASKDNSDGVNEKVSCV
Method (c): For the binding to the 5-HT2A receptor the 5-HT2A receptors were radiolabeled with [^125I]-DOI. The affinity of the compounds for 5-HT2A receptors in a CHO cell line was determined according to the procedure of D. J. McKenna and S. J. Peroutka, J. Neurosci., 1989, 9, 3482-90.

The target of data set [2] is T1, 5-HT2A receptor. Put plainly: Functional activity, FLIPR calcium assay in CHO cells expressing human 5-HT2A. The note with it: for h5-HT2A Relative Efficacy: maximum fluorescent signal relative to 10 μM 5-HT (defined as 100%). The arrangement: expressed in transfected cells; host or cells: CHO cells. In kind it is cell-based. Here is the method: (§2) The functional activity of compounds of formula (I) was assayed using a Fluorimetric Imaging Plate reader (FLIPR). CHO cells expressing the human 5-HT2C or human 5-HT2A receptors were counted and plated into standard 96 well microtitre plates on the day before testing to give a confluent monolayer. The cells were then dye loaded with the calcium sensitive dye, Fluo-3-AM. Unincorporated dye was removed using an automated cell washer to leave a total volume of 100 μL/well of assay buffer (Hanks balanced salt solution containing 20 mM Hepes and 2.5 mM probenecid). The drug (dissolved in 50 μL of the assay buffer) was added at a rate of 70 μL/sec to each well of the FLIPR 96 well plate during fluorescence measurements. The measurements were taken at 1 sec intervals and the maximum fluorescent signal was measured (approx. 10-15 secs after drug addition) and compared with the response produced by 10 μM 5-HT (defined as 100%) to which it was expressed as a percentage response (relative efficacy). Dose response curves were constructed using Graphpad Prism (Graph Software Inc.).

The target of the next data set is T2, human 5-HT2B receptors (Homo sapiens, UniProt P41595).
T2 construct: expressed in transfected cells; host or cells: CHO cell line
T2 sequence (P41595 whole entry): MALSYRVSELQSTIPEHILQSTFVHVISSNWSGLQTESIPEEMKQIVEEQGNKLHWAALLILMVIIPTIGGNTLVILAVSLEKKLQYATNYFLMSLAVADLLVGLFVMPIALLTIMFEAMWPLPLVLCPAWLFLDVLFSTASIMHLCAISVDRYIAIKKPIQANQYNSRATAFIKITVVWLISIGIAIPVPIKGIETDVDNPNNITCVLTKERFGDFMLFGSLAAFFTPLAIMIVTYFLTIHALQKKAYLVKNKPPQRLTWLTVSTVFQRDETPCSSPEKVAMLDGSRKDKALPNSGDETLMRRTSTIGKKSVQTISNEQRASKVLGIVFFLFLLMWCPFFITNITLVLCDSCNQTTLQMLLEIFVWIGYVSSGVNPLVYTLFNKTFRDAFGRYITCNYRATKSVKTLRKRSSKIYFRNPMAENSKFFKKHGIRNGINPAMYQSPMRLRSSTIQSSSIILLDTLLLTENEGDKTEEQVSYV
Put plainly: Binding to 5-HT2B receptor, [3H]-5-HT radioligand, Method (b). Particulars: human receptor in CHO cell line, read-out: Ki (2B). Here is the method: as §1
Method (b): For the binding to the 5-HT2B receptor the 5-HT2B receptors were radiolabeled with [^3H]-5-HT. The affinity of the compounds for human 5-HT2B receptors in a CHO cell line was determined according to the procedure of K. Schmuck, C. Ullmer, P. Engels and H. Lubbert, FEBS Lett., 1994, 342, 85-90.

For data set [3], the target named is T3, 5-HT2C receptor (Homo sapiens, UniProt P28335).
T3 sequence (P28335 33-458): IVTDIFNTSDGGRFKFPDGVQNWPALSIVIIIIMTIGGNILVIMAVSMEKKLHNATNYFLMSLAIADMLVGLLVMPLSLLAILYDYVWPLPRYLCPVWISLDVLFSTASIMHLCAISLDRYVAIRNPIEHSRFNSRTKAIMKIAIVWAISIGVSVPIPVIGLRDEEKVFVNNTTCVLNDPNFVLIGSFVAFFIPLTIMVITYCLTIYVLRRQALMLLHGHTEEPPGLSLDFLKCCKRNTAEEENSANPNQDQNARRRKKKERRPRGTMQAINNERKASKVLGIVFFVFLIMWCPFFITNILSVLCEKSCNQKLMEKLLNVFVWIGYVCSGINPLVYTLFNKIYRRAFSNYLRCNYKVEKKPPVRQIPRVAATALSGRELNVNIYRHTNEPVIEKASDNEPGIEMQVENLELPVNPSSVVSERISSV
Put plainly: Binding to 5-HT2C receptor, [3H]-5-HT radioligand, Method (a). Particulars: CHO cell line, read-out: Ki (2C). Further details: expressed in transfected cells; host or cells: CHO cell line. Here is the method:
as §1
Method (a): For the binding to the 5-HT2C receptor the 5-HT2C receptors were radiolabeled with [^3H]-5-HT. The affinity of the compounds for 5-HT2C receptors in a CHO cell line was determined according to the procedure of D. Hoyer, G. Engel and H. O. Kalkman, European J. Pharmacol., 1985, 118, 13-23.

For data set [4], the target named is T3, 5-HT2C receptor. Put plainly: Functional activity, FLIPR calcium assay in CHO cells expressing human 5-HT2C. Further details: expressed in transfected cells; host or cells: CHO cells. The note with it: for h5-HT2c Relative Efficacy: maximum fluorescent signal relative to 10 μM 5-HT (defined as 100%). In kind it is cell-based. As for the experimental part: as §2

Setting [5] is: FLIPR, CHO cells, Fluo-3-AM, read-out: h5-HT2A EC50.
[6] abbreviates: FLIPR, CHO cells, Fluo-3-AM, read-out: h5-HT2c EC50.

Where two headings read alike, the source gives them in different places.

Broadly, the melting point is the temperature of the solid-liquid transition. As to `C[C@@H]1CNCc2cc3c(Cl)cccc3n21.Cl`, the melting point is 234 to 237 °C (dec.).

For the molecule `Cc1cc2c(cc1Br)cc1n2[C@H](C)CNC1.Cl`, the melting point was 241 °C (dec.).

`C[C@@H]1CNCc2cc3ccc(C(F)(F)F)cc3n21` [Example 2, (R)-4-Methyl-7-trifluoromethyl-1,2,3,4-tetrahydro-pyrazino[1,2-a]indole] came in with a melting point of 123 to 125 °C.

For `C[C@@H]1CNCc2cc3cc(Br)c(F)cc3n21.Cl`, the melting point was 232 °C.

For the molecule `Cc1ccc2cc3n(c2c1)[C@H](C)CNC3.Cl`, the melting point is 245 °C (dec.).

The term Ki denotes the dissociation constant of the complex between target and ligand, obtained from inhibition or displacement. The term EC50 denotes the concentration giving half of the maximal effect. With `C[C@@H]1CNCc2cc3ccc(Cl)cc3n21` [Example 20, (R)-7-Chloro-4-methyl-1,2,3,4-tetrahydro-pyrazino[1,2-a]indole], the Ki on 5-HT2A receptor [1] is 23 nM; on human 5-HT2B receptors it was 44 nM; at 5-HT2C receptor [3] it was 2.8 nM. Besides, the 50% effective concentration (EC50) at 5-HT2A receptor [2] (setting [5]) was determined as 163 nM; on 5-HT2C receptor [4] (setting [6]), 7 nM. For the same molecule, on 5-HT2A receptor [2], the “h5-HT2A Relative Efficacy” value worked out at 49%. Moreover, on 5-HT2C receptor [4], the “h5-HT2c Relative Efficacy” value came out at 91%.

Consider `Cc1c2n(c3c(C)c(Cl)ccc13)[C@H](C)CNC2.O=C(O)C(=O)O` [Example 14, (R)-7-Chloro-4,6,10-trimethyl-1,2,3,4-tetrahydro-pyrazino[1,2-a]indole oxalate], for which the EC50 came out at 536 nM at 5-HT2A receptor [2] (setting [5]) and 0.4 nM at 5-HT2C receptor [4] (setting [6]). Besides, the “h5-HT2A Relative Efficacy” value on 5-HT2A receptor [2] turned out to be 34%. On 5-HT2C receptor [4], the “h5-HT2c Relative Efficacy” value is listed as 88%.

Turning to `Cc1ccc(C)c2c1cc1n2[C@H](C)CNC1` [Example 21, (R)-4,6,9-Trimethyl-1,2,3,4-tetrahydro-pyrazino[1,2-a]indole], at 5-HT2A receptor [2], the EC50 is 121 nM and the “h5-HT2A Relative Efficacy” value was 76%. At 5-HT2C receptor [4], the EC50 came to 5 nM and the “h5-HT2c Relative Efficacy” value turned out to be 80%.

The molecule `C[C@@H]1CNCc2cc3cccc(OC(F)(F)F)c3n21` [Example 17, (R)-4-Methyl-6-trifluoromethoxy-1,2,3,4-tetrahydro-pyrazino[1,2-a]indole] showed a melting point of 58 to 60 °C.

For `CCc1cccc2cc3n(c12)[C@H](C)CNC3` [Example 1, (R)-6-Ethyl-4-methyl-1,2,3,4-tetrahydro-pyrazino[1,2-a]indole], the Ki at 5-HT2A receptor [1] was found to be 205 nM; on human 5-HT2B receptors it was 86 nM; on 5-HT2C receptor [3], 5 nM. For the same molecule, the EC50 on 5-HT2A receptor [2] (setting [5]) worked out at 640 nM; on 5-HT2C receptor [4] (setting [6]), 22 nM. Further, the “h5-HT2A Relative Efficacy” value at 5-HT2A receptor [2] is reported as 23%. On 5-HT2C receptor [4], the “h5-HT2c Relative Efficacy” value is 83%.
